Data on 4 compounds can be found in doi:10.1101/2025.09.30.679521v1, “Crystallographic characterisation and development of bi-substrate inhibitors of coronavirus nsp14 methyltransferase” (biorxiv, 2025).

The structures appear in SMILES notation.

The target in one data set is HCoV-NL63 nsp14 (Human coronavirus NL63, UniProt P0C6X5). Nature of the data set: RapidFire MS methyltransferase assay. It is filed as biochemical. The settings on record: read-out: IC50. From the text:
RapidFire MS methyltransferase assay on HCoV-NL63 nsp14

The target of the next data set is human RNMT (Homo sapiens, UniProt O43148). Nature of the data set: RNMT methyltransferase assay (Gray et al.). In kind it is biochemical. From the text: RNMT methyltransferase assay (Gray et al.) on human RNMT
Chain of human RNMT (O43148 whole entry): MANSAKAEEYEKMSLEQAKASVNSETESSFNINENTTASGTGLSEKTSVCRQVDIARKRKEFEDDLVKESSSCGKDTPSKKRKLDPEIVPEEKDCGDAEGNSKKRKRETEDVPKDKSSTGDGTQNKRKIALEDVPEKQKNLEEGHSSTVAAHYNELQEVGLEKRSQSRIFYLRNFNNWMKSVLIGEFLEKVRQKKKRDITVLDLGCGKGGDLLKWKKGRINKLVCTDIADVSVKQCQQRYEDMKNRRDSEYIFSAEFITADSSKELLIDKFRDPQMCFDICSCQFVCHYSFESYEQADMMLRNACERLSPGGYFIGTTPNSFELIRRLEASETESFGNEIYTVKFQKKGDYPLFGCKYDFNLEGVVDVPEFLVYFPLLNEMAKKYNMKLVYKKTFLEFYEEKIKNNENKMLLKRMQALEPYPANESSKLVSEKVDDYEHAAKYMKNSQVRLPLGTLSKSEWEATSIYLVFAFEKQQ
The target in a further data set is T1, HCoV-229E nsp14 (Human coronavirus 229E, UniProt P0C6X1).
T1 construct: gene rep
T1 sequence (P0C6X1 5593-6110): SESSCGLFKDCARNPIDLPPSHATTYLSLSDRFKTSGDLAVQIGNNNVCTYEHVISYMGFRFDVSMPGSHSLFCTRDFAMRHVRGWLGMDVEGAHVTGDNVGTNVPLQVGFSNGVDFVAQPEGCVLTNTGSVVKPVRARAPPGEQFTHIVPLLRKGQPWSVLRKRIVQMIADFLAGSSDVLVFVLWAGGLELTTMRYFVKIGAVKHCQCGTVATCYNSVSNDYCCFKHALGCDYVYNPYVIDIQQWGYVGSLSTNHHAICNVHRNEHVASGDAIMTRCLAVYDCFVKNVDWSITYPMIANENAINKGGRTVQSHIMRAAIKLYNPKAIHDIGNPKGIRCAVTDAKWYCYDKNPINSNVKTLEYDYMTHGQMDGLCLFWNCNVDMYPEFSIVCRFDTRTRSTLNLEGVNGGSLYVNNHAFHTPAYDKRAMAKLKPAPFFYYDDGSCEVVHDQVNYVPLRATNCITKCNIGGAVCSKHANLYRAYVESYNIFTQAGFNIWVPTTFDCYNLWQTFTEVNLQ
Put plainly: RapidFire MS methyltransferase assay. In kind it is biochemical. The settings on record: read-out: IC50. From the text:
RapidFire MS methyltransferase assay on HCoV-229E nsp14

The target of a further data set is T2, SARS-CoV-2 nsp14 (Severe acute respiratory syndrome coronavirus 2, UniProt P0DTD1).
T2 construct: gene rep
Nature of the data set: RapidFire MS methyltransferase assay. In kind it is biochemical. The settings on record: read-out: IC50. The text has this:
RapidFire MS methyltransferase assay on SARS-CoV-2 nsp14

Data set [1] is described as follows: in vitro. The settings on record: dog, MDCK. Also on record: MDCK permeability.
A further data set concerns the target T3, MERS-CoV nsp14 (Betacoronavirus England 1, UniProt K9N7C7).
T3 construct: gene rep
Put plainly: biochemical.

The nature of data set [2]: in vitro. Also on record: mouse liver microsomal stability. The settings on record: liver microsomes; Mouse liver microsomes; read-out: Mouse liver Mic T1/2 / min. From the text:
We initiated our structure-activity relationship (SAR) studies by investigating various replacements for the benzothiazole group, compounds 2-17, Table 1. […] Relatively flat SAR is observed across this subset of compounds, indeed a 6,5 or 6,6 aromatic system with the appropriate connectivity as compound 1 display relatively similar potencies. […] In general, the mouse microsomal clearance was rather low for this set of molecules, with no significant instabilities introduced, with perhaps the exception of compound 4. With no significant advantages in either potency or mouse microsomal clearance (Table S2) identified for this subset, the benzothiazole was taken forward into subsequent SAR studies. Table 2. Enzymatic inhibition against SARS-CoV-2 nsp14, human RNMT, CHI-logD and mouse microsomal stability.
On the technique in general: Liver microsomes are a subcellular fraction often used to study metabolism.

Data set [3] can be described thus: in vitro. The settings on record: dog, MDCK. Also noted: MDCK permeability. The source holds these as a separate data set.

Chain of HCoV-NL63 nsp14 (P0C6X5 5568-6085): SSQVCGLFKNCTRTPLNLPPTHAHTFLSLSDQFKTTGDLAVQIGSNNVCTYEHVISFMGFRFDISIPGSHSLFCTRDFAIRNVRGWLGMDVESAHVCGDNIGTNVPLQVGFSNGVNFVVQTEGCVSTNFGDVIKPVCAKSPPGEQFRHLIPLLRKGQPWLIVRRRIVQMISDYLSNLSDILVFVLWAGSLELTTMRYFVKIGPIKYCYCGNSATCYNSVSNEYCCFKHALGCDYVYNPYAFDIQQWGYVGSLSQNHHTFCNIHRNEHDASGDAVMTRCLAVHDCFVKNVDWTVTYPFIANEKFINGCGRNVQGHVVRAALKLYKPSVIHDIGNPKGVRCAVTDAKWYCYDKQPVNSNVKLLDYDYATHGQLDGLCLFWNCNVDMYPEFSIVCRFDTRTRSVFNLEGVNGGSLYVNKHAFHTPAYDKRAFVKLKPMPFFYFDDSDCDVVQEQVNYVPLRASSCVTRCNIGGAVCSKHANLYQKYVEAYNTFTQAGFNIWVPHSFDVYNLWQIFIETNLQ
T3 sequence (K9N7C7 5909-6432 limits assumed): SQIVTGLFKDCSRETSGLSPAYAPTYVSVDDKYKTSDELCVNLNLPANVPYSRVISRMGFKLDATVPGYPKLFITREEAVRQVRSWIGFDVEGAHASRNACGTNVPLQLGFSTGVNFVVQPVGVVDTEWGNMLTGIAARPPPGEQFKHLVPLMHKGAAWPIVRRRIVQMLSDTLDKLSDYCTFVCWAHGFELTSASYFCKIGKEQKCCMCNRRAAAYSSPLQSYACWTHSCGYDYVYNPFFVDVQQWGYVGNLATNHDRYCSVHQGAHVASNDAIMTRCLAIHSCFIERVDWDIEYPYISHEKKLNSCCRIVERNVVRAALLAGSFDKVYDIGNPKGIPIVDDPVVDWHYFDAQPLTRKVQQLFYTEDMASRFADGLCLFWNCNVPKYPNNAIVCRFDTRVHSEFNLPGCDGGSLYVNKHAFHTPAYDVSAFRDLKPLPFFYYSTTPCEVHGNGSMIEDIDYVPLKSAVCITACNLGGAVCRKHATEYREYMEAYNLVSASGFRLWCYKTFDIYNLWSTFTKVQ

`Nc1ncnn2c([C@@H]3O[C@H](CNS(=O)(=O)c4ccc5ccccc5c4)[C@@H](O)[C@H]3O)ccc12` [compound 34]: the IC50 (as a rule, the concentration that inhibits the measured activity by half) came to 0.76 ± 0.31 µM at HCoV-NL63 nsp14, 27.7 µM at human RNMT, 0.32 ± 0.01 µM on HCoV-229E nsp14 and 0.17 ± 0.03 µM at SARS-CoV-2 nsp14. For the same compound, the Papp (in general, a coefficient for how fast a substance crosses the barrier) in “in vitro [1]” was 10 nm/s. In “physchem”, the logD (in general, lipophilicity at a set pH, counting ionised and neutral species) is 1.6.

Consider `Nc1ncnc2c1ncn2[C@@H]1C[C@H](CSc2nc3ccccc3s2)[C@@H](O)[C@H]1O` [compound 26], for which the IC50 at HCoV-NL63 nsp14 was 0.008 ± 0.003 µM; on human RNMT it was above 100 µM; at HCoV-229E nsp14, 0.021 ± 0.004 µM; on SARS-CoV-2 nsp14, 0.053 ± 0.03 µM; against MERS-CoV nsp14, 0.73 µM. Moreover, the half-life in “in vitro [2]” is above 30 min. For the same compound, the logD in the data set “physchem” was found to be 1.5.

In the case of `Nc1ncnc2c1ncn2[C@@H]1O[C@H](/C=C/c2nc3ccccc3s2)[C@@H](O)[C@H]1O` [compound 33], the IC50 on HCoV-NL63 nsp14 is 0.017 ± 0.001 µM; against human RNMT it was above 100 µM; on HCoV-229E nsp14, 0.051 ± 0.009 µM; on SARS-CoV-2 nsp14, 0.036 ± 0.01 µM. The compound further showed a Papp in “in vitro [3]” of 49 nm/s. Besides, the log distribution coefficient (logD) in “physchem” turned out to be 1.3.

Turning to `Nc1ncnc2c1ncn2[C@@H]1O[C@H](CNS(=O)(=O)c2ccc3ccccc3c2)[C@@H](O)[C@H]1O` [compound 32], the IC50 was 0.53 ± 0.12 µM on HCoV-NL63 nsp14, above 100 µM against human RNMT, 0.3 ± 0.01 µM on HCoV-229E nsp14 and 0.13 ± 0.04 µM at SARS-CoV-2 nsp14. In addition, the Papp in the data set “in vitro [3]” was 12 nm/s. Besides, the logD in the data set “physchem” came out at 1.5.
